Where two headings read alike, the source gives them in different places.
Tests used:
[1] = target: T1, αvβ3 integrins on human GBM (U87 MG) cell (Homo sapiens, UniProt P05106+P06756); test: Competition assay against [^64Cu]Cu-NOTA-c(RGDfK) on U87 MG cells; type: binding; details: in competition to [^64Cu]Cu-NOTA-c(RGDfK), 1 h incubation
T1 construct: host or cells: U87 MG

[2] = design: method as in PMID 30023392; details: daily cisplatin for 5 days before radiation ref 24; cited from earlier work
[3] = tested on: SVG p12 normal glial cells
U87 MG cells [4] = test: cells; type: cell-based, human; details: U87 MG
Experimental: In this procedure, U87 MG (2 × 10^4 cells per well) were seeded in BD falcon transparent 96-well plates and incubated for 24 h.

SVG p12 cells [5] = test: Efflux kinetics of ^64Cu-NOTA conjugates; type: cell-based, human; details: Table S3
U87 MG cells [6] = test: Efflux kinetics of ^64Cu-NOTA conjugates; type: cell-based, human; details: Table S3
Experimental: (§1) U87 MG (1 × 10^5 per well) were seeded in corning 24-well plates and cultured in DMEM with 10% FBS at 37 °C. […] For uptake assay, cells were washed with PBS to collect surface-bound and internalized activity, and for internalization assay, glycine-HCl wash was performed to remove surface bound activity. Moreover, cells were harvested, counted, and radioactivity was measured using a gamma counter. Results were expressed as percentage of total activity (%) in counts per min (CPM)/10^6 cells. For efflux studies, U87 MG cells were incubated with the complexes for 1 h, then washed with PBS, and replaced with fresh medium. The retained activity was measured over 0 to 24 h after washing.

SVG p12 cells [7] = test: Internalization of ^64Cu-NOTA conjugates (glycine-HCl wash); type: cell-based, human; details: Table S2
U87 MG cells [8] = test: as above; type: cell-based, human
Experimental: as §1

U87 MG cells [9] = test: Cellular uptake of ^64Cu-NOTA conjugates; type: cell-based, human
Experimental: as §1

[10] = Plasma stability by radio-TLC; type: in vitro ADME; details: 48 h, 37 °C, mouse plasma
Experimental: To precipitate plasma proteins, the samples were treated twice with ethanol (1:1, v/v), vortexed for 1 min, and centrifuged at 7000 rpm for 10 min. The soluble fraction was separated by ultracentrifugation, and radioactivity was measured. The resulting supernatant was analyzed by radio-TLC on C18 plates. […] Radio-TLC was developed using 0.1 M sodium citrate buffer (pH 5.5), and radiodetection was performed with an Instant Imager system (BioScan, Washington, DC, USA) (Figure S5C). The supernatant fraction was then analyzed using the same methodology described above.

bovine serum albumin = bovine serum albumin (Bos taurus, UniProt P02769); test: Binding to bovine serum albumin; type: in vitro ADME
SVG p12 cells [11] = test: Cellular uptake of ^64Cu-NOTA conjugates; type: cell-based, human; details: Table S1
U87 MG cells [12] = test: Subcellular localization (nucleus/cytoplasm fractions); type: cell-based, human
Experimental: (§2) The nucleus and cytoplasm of U87 MG and SVG p12 cells were extracted following established procedures as previously reported. […] After incubation, cells were washed and incubated on ice with CSK buffer (0.5% Triton X-100, 300 mM sucrose, 100 mM NaCl, 1 mM EDTA, 2 mM MgCl2, and 10 mM HEPES, pH 6.8) for 2 min. After 5 min centrifugation, supernatant containing cytoplasmic extract was collected and transferred in labeled tubes. The resulting pellets were incubated on ice for 2 min with CSK buffer without Triton X-100 to extract the nuclear fraction. The buffer containing the nuclear fraction was collected into separate tubes. The radioactivity in both cytoplasmic and nuclear fractions was measured using a gamma counter (HIDEX Automatic Gamma Counter 2014).

SVG p12 cells [13] = test: as above; type: cell-based, human
Experimental: as §2

[14] = 0.5 h after 1 h incubation and wash

## N=C(N)NCCC[C@@H]1NC(=O)[C@H](CCCCNC(=O)CNC(=O)COCCOCCNC(=O)CN2CCN(CC(=O)O)CCN(CC(=O)O)CC2)NC(=O)[C@@H](Cc2ccccc2)NC(=O)[C@H](CC(=O)O)NC(=O)CNC1=O [^natCu-NOTA-c(RGDfK), metal not drawn]
[1]
  IC50: 10.6 ± 3.2 nM

## N.N.[Cl][Pt][Cl] [Cisplatin]
[2]
  increase of treatment efficacy compared to radiotherapy alone: 35%
[3]
  EC50: 15 ± 5 µM
[3]; read-out: EC50 24 h SVG p12, 24 h, SVG p12
  EC50: 35 ± 4 µM
[3]; read-out: EC50 48 h SVG p12, 48 h, SVG p12
  EC50: 15 ± 7 µM
U87 MG cells [4]; 24 h, read-out: EC50 24 h U87 MG
  EC50: 90 ± 8 µM
U87 MG cells [4]; 48 h, read-out: EC50 48 h U87 MG
  EC50: 25 ± 6 µM
U87 MG cells [4]; 72 h, read-out: EC50 72 h U87 MG
  EC50: 20 ± 5 µM

## N=C(N)NCCC[C@@H]1NC(=O)[C@H](CCCCNC(=O)[C@H](CCCCNC(=O)c2cc(-c3ccccn3)nc(-c3ccccn3)c2)NC(=O)COCCOCCNC(=O)CN2CCN(CC(=O)O)CCN(CC(=O)O)CC2)NC(=O)[C@@H](Cc2ccccc2)NC(=O)[C@H](CC(=O)O)NC(=O)CNC1=O [metal not drawn]
SVG p12 cells [5]; [14]
  Efflux (retained activity) 0.5h SVG p12: 85.25 ± 8.63 % total activity (CPM) /106 cells
SVG p12 cells [5]; 1 h after wash
  Efflux (retained activity) 1h SVG p12: 75.50 ± 10.93 % total activity (CPM) /106 cells
SVG p12 cells [5]; 2 h after wash
  Efflux (retained activity) 2h SVG p12: 54.29 ± 8.47 % total activity (CPM) /106 cells
SVG p12 cells [5]; 4 h after wash
  Efflux (retained activity) 4h SVG p12: 59.78 ± 2.75 % total activity (CPM) /106 cells
SVG p12 cells [5]; 24 h after wash
  Efflux (retained activity) 24h SVG p12: 31.32 ± 1.01 % total activity (CPM) /106 cells
U87 MG cells [6]; [14]
  Efflux (retained activity) 0.5h U87 MG: 88.93 ± 9.47 % total activity (CPM) /106 cells
U87 MG cells [6]; 1 h after wash
  Efflux (retained activity) 1h U87 MG: 93.32 ± 1.47 % total activity (CPM) /106 cells
U87 MG cells [6]; 2 h after wash
  Efflux (retained activity) 2h U87 MG: 83.19 ± 4.21 % total activity (CPM) /106 cells
U87 MG cells [6]; 4 h after wash
  Efflux (retained activity) 4h U87 MG: 76.55 ± 2.59 % total activity (CPM) /106 cells
U87 MG cells [6]; 24 h after wash
  Efflux (retained activity) 24h U87 MG: 51.36 ± 2.08 % total activity (CPM) /106 cells
SVG p12 cells [7]; 1 h
  Internalized activity 1h SVG p12: 2.85 ± 0.56 % total activity (CPM) /106 cells
SVG p12 cells [7]; 2 h
  Internalized activity 2h SVG p12: 2.46 ± 0.90 % total activity (CPM) /106 cells
SVG p12 cells [7]; 4 h
  Internalized activity 4h SVG p12: 2.79 ± 0.38 % total activity (CPM) /106 cells
SVG p12 cells [7]; 24 h
  Internalized activity 24h SVG p12: 7.40 ± 1.43 % total activity (CPM) /106 cells
SVG p12 cells [7]; 48 h
  Internalized activity 48h SVG p12: 8.21 ± 0.74 % total activity (CPM) /106 cells
U87 MG cells [8]; 1 h, Table S2
  Internalized activity 1h U87 MG: 5.50 ± 0.80 % total activity (CPM) /106 cells
U87 MG cells [8]; 1 h, U87 MG
  internalized fraction: 5.5 ± 0.8 % CPM/10^6 cells
U87 MG cells [8]; 2 h, Table S2
  Internalized activity 2h U87 MG: 5.67 ± 0.67 % total activity (CPM) /106 cells
U87 MG cells [8]; 4 h, Table S2
  Internalized activity 4h U87 MG: 7.35 ± 1.31 % total activity (CPM) /106 cells
U87 MG cells [8]; 24 h
  internalization in U87 MG cells: 28.0 ± 1.0%
U87 MG cells [8]; 24 h, Table S2
  Internalized activity 24h U87 MG: 28.03 ± 1.02 % total activity (CPM) /106 cells
U87 MG cells [8]; 24 h, U87 MG
  internalization compared to [^64Cu]Cu-NOTA-TP: over 1.5 fold
  internalization compared to [^64Cu]Cu-NOTA-c(RGDfK): more than 2.4 fold
  internalized fraction: 28.0 ± 1.0 % CPM/10^6 cells
U87 MG cells [8]; 48 h, Table S2
  Internalized activity 48h U87 MG: 24.08 ± 1.63 % total activity (CPM) /106 cells
U87 MG cells [9]; 1 h, 37 °C, Table S1
  Uptake 1h U87 MG: 6.21 ± 1.58 % total activity (CPM) /106 cells
U87 MG cells [9]; 2 h, Table S1
  Uptake 2h U87 MG: 6.89 ±1.73 % total activity (CPM) /106 cells
U87 MG cells [9]; 4 h, Table S1
  Uptake 4h U87 MG: 10.33 ± 1.86 % total activity (CPM) /106 cells
U87 MG cells [9]; 24 h
  uptake in U87 MG cells: 38.8 ± 1.8%
U87 MG cells [9]; 24 h, Table S1
  Uptake 24h U87 MG: 38.76 ± 1.82 % total activity (CPM) /106 cells
U87 MG cells [9]; 24 h, U87 MG
  uptake relative to [^64Cu]Cu-NOTA-TP: approximately 1.3 times
  uptake relative to [^64Cu]Cu-NOTA-c(RGDfK): ~2.7 times
U87 MG cells [9]; 48 h, Table S1
  Uptake 48h U87 MG: 37.56 ± 1.30 % total activity (CPM) /106 cells
[10]
  free ^64Cu in plasma supernatant by radio-TLC: no detectable free ^64Cu
Bovine serum albumin
  binding to bovine serum albumin: 52%
SVG p12 cells [11]; 1 h
  Uptake 1h SVG p12: 3.63 ± 0.21 % total activity (CPM) /106 cells
SVG p12 cells [11]; 2 h
  Uptake 2h SVG p12: 4.96 ± 0.89 % total activity (CPM) /106 cells
SVG p12 cells [11]; 4 h
  Uptake 4h SVG p12: 5.80 ± 0.49 % total activity (CPM) /106 cells
SVG p12 cells [11]; 24 h
  Uptake 24h SVG p12: 10.87 ± 2.17 % total activity (CPM) /106 cells
SVG p12 cells [11]; 48 h
  Uptake 48h SVG p12: 8.38 ± 1.70 % total activity (CPM) /106 cells
[3]
  toxicity in normal SVG p12 astrocytes: minimal toxicity
U87 MG cells [12]; 24 h
  cytoplasmic distribution: 17.4 ± 1.5%
  nuclear uptake: 6.0 ± 0.5%
U87 MG cells [12]; 48 h
  cytoplasmic distribution: 21.0 ± 0.7%
U87 MG cells [12]; 72 h
  cytoplasmic distribution: 15.4 ± 0.5%
SVG p12 cells [13]; SVG p12, 24 h
  nuclear uptake: 2.5 ± 0.8%
SVG p12 cells [13]; SVG p12, 48 h
  nuclear uptake: 0.9 ± 0.2%
SVG p12 cells [13]; SVG p12, 72 h
  nuclear uptake: 0.9 ± 0.3%
U87 MG cells [4]; 24 h, vs ^natCu-NOTA-TP-c(RGDfK)
  improvement in potency compared to nonradioactive analogue: approximately 2500 fold

Reference: paper PMC12384813
